# According to US5534533A, “Carboxylate derivatives exhibiting phospholipase A2 inhibitory activity” (Shionogi & Co., Ltd., priority 1993, dated 1996):
# pIC50: −log10 of the molar value. Counter-ions that a name gives are not always drawn.
# Key:
# [1] = molecular target: T1, intracellular PLA2 (cytosolic PLA2, cPLA2) (Homo sapiens, UniProt P47712); assay: Intracellular PLA2 (cPLA2) inhibitory activity (14C-arachidonyl phosphatidylcholine substrate); type: biochemical; settings: 2 μM radiolabelled phosphatidylcholine, 1 μM dioleoylglycerol, 1 mM CaCl2, pH 7.4; read-out: c-PLA2 Inhibition IC50
# T1 sequence (P47712 1-749): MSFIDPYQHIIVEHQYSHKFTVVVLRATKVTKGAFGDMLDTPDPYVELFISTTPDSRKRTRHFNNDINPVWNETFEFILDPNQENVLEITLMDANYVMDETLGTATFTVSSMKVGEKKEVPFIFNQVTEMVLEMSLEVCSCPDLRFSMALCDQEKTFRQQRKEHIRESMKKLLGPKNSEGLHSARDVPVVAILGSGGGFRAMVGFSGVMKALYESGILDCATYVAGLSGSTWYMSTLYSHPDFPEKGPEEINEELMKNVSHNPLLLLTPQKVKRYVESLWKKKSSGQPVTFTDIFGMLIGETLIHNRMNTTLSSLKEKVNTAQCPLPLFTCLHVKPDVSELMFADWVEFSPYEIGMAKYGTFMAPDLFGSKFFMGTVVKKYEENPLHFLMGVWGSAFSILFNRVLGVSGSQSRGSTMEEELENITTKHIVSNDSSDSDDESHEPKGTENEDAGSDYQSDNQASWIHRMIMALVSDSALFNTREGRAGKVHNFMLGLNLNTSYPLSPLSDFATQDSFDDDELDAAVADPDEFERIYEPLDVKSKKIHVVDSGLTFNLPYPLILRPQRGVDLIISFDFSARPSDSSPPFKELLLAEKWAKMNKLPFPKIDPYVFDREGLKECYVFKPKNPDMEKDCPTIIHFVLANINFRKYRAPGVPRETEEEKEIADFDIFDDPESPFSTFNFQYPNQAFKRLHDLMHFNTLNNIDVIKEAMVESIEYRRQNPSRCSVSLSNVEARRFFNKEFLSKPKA
# Protocol: cPLA2 activity was assayed according to the method described in R. M. Kramer, E. F. Roberts, J. Manetta and J. E. Putnam, J. Biol. Chem., 268 (8), 5268-5272 (1991). Briefly, intracellular PLA2 activity was assayed using supersonic treated […] which contain 1-palmitoyl-2-[^14 C]arachidonyl-sn-glycero-3-phosphocholine and sn-1, 2-dioleoylglycerol at a molar ratio of 2:1. This test mixture contained 1 mM CaCl2, 2 mM dithiothreitol, 150 mM NaCl, 50 mM Hepes, pH 7.4 and 0.1 mg/ml BSA. A substrate is a 2 μM radioisotope labelled phosphatidylcholine ribosome containing 1 μM dioleoylglycerol. IC50 value is calculating in the same manner as in calculating it for secretory PLA2 inhibitory activity.
# Human secretory PLA2 = molecular target: T2, Human secretory PLA2 (Homo sapiens, UniProt P14555); assay: Secretory PLA2 inhibitory activity (diheptanoyl thio PC substrate, absorbance at 405 nm); type: biochemical; settings: diheptanoyl thio PC 1 mM, Triton X100 0.3 mM, pH 7.3, CaCl2 10 mM, 30 minutes, read-out: s-PLA2 Inhibition IC50
# T2 sequence (P14555 21-144): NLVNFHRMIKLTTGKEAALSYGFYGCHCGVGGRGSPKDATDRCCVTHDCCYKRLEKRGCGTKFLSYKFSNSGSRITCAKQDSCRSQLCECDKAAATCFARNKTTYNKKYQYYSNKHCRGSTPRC
# Protocol: Secretory PLA2 activity was assayed according to the method described in Penynolds L. J., Hughes L. L., Dennis E. A. et al. Anal. Biochem. 201,190-197 (1992).
# Diheptanoyl thiophosphatidylcholine which was prepared according to the procedure described in the literature was used as a substrate. Human secretory PLA2 was used as an enzyme. The diheptanoyl thio PC (1 mM) was reacted with the human secretory PLA2 in the presence of Triton X100 (0.3 mM) and 5,5'-dithiobis-(2-nitrobenzoic acid) (125 μM) in Tris buffer (25 mM, pH 7.3), CaCl2 (10 mM), KCI (100 mM), bovine serum albumin (1.0 mg/ml), and then the change in absorbance at 405 nm at the time of 30 minutes after the reaction was assayed.
# Inhibitory activity (%) was estimated by the formula: [(the change in absorbance with the inhibitor and PLA2 ·the change in absorbance with the inhibitor and without PLA2)/(the change in absorbance without the inhibitor and with PLA2 ·the change in absorbance without the inhibitor and PLA2)]×100.
# IC50 value (μM) was calculated from graph showing inhibitory values on the vertical axis and log of concentrations of the inhibitor on the horizontal axis.
Structure (SMILES),pIC50 [1],pIC50 (Human secretory PLA2)
"COc1c(C)c(OC(=O)c2c(C)c(C)c(OCCC3=CCC4CC3C4(C)C)c(C)c2OC)c(C)c(C)c1C(=O)O (single isomer, unassigned) [Example 49, 4-{4-[2-(6,6-Dimetheylbicyclo[3.1.1]hept-2-en-2-yl)ethoxy]-2-methoxy-3,5,6-trimethylbenzoyloxy}-2-methoxy-3,5,6-trimethylbenzoic Acid]",5.39,4.36
"COc1c(C)c(OC(=O)c2c(C)c(C)c(OCCCCCCOc3ccc(C(F)(F)F)cc3)c(C)c2OC)c(C)c(C)c1C(=O)O [Example 3, 4-[4-[6-(4-Trifluoromethylphenoxy)hexyloxy]-2-methoxy-3,5,6-trimethylphenylcarboxy]-2-methoxy-3,5,6-trimethylbenzoic acid]",5.52,4.49
"COc1c(C)c(OC(=O)c2c(C)c(C)c(OCCCCCCOc3ccc(F)cc3)c(C)c2OC)c(C)c(C)c1C(=O)O [Example 4, 4-[4-[6-(4-Fluorophenoxy)hexyloxy]-2-methoxy-3,5,6-trimethylphenylcarboxy]-2-methoxy-3,5,6-trimethylbenzoic acid]",5.13,4.57
"COc1c(C)c(OC(=O)c2c(C)c(C)c(OCCCCCCSc3ccc(F)cc3)c(C)c2OC)c(C)c(C)c1C(=O)O [Example 5, 4-[4-[6-(4-Fluorophenylthio)hexyloxy]-2-methoxy-3,5,6-trimethylphenylcarboxy]-2-methoxy-3,5,6-trimethylbenzoic acid]",5.40,4.33
"COc1c(C)c(OC(=O)c2c(C)c(C)c(OCCCCCCS(=O)(=O)c3ccc(F)cc3)c(C)c2OC)c(C)c(C)c1C(=O)O [Example 6, 4-[4-[6-(4-Fluorophenylsulfonyl)hexyloxy]-2-methoxy-3,5,6-trimethylphenylcarboxy]-2-methoxy-3,5,6-trimethylbenzoic acid]",4.92,5.05
"COc1c(C(C)(C)C)cc(SCCCOc2c(C)c(C)c(C(=O)Oc3c(C)c(C)c(C(=O)O)c(OC)c3C)c(OC)c2C)cc1C(C)(C)C [Example 7, 4-[4-[3-(3,5-Di-tert-butyl-4-methoxyphenylthio)propyloxy]-2-methoxy-3,5,6-trimethylphenylcarboxy]-2-methoxy-3,5,6-trimethylbenzoic acid]",6.27,< 4.30
"COc1c(C)c(OC(=O)c2c(C)c(C)c(OCc3ccc(F)cc3)c(C)c2OC)c(C)c(C)c1C(=O)O [Example 8, 4-[4-(4-Fluorobenzyloxy)-2-methoxy-3,5,6-trimethylphenylcarboxy]-2-methoxy-3,5,6-trimethylbenzoic acid]",4.51,4.66
"COc1c(C)c(OC(=O)c2c(C)c(C)c(OCc3ccccc3)c(C)c2OC)c(C)c(C)c1C(=O)O [Example 9, 4-[4-Benzyloxy-2-methoxy-3,5,6-trimethylphenylcarboxy)2-methoxy-3,5,6-trimethylbenzoic acid]",4.48,4.35
"COc1c(C)c(OC(=O)c2c(C)c(C)c(OCCCSc3ccc(F)cc3)c(C)c2OC)c(C)c(C)c1C(=O)O [Example 10, 4-[4-[3-(4-Fluorophenylthio)propyloxy]-2-methoxy-3,5,6-trimethylphenylcarboxy]-2-methoxy-3,5,6-trimethylbenzoic acid]",4.89,4.89
"COc1c(C)c(OC(=O)c2c(C)c(C)c(OCCCCCCOc3ccc(Cl)cc3)c(C)c2OC)c(C)c(C)c1C(=O)O [Example 11, 4-[4-[6-(4-Chlorophenoxy)hexyloxy]-2-methoxy-3,5,6-trimethylphenylcarboxy]-2-methoxy-3,5,6-trimethylbenzoic acid]",5.32,4.85
"COc1c(C(C)(C)C)cc(SCCCCCCOc2c(C)c(C)c(C(=O)Oc3c(C)c(C)c(C(=O)O)c(OC)c3C)c(OC)c2C)cc1C(C)(C)C [Example 12, 4-[4-[6-(3,5-Di-tert-butyl-4-methoxyphenylthio)hexyloxy]-2-methoxy-3,5,6-trimethylphenylcarboxy]-2-methoxy-3,5,6-trimethylbenzoic acid]",5.70,< 4.30
"COc1c(C(C)(C)C)cc(SCCCCCCOc2c(C)c(C)c(C(=O)O)c(OC)c2C)cc1C(C)(C)C [Example 13, 4-[6-(3,5-Di-tert-butyl-4-methoxyphenylthio)hexyloxy]-2-methoxy-3,5,6-trimethylbenzoic acid]",5.72,< 4.30
"COc1c(C)c(OC(=O)c2c(C)c(C)c(OCCCOc3ccc(F)cc3F)c(C)c2OC)c(C)c(C)c1C(=O)O [Example 14, 4-[4-[3-(2,4-difluorophenoxy)propyloxy]-2-methoxy-3,5,6-trimethylphenylcarboxy]-2-methoxy-3,5,6-trimethylbenzoic acid]",5.03,4.85
"COc1c(C(C)(C)C)cc(SCCCOc2c(C)c(C)c(C(=O)O)c(OC)c2C)cc1C(C)(C)C [Example 16, 4-[3-(3,5-Di-tert-butyl-4-methoxyphenylthio)propyloxy]-2-methoxy-3,5,6-trimethylbenzoic acid]",5.59,< 4.30
"COc1ccc(OCCCOc2c(C)c(C)c(C(=O)Oc3c(C)c(C)c(C(=O)O)c(OC)c3C)c(OC)c2C)cc1 [Example 17, 4-[4-[3-(4-Methoxyphenoxy)propyloxy]-2-methoxy-3,5,6-trimethylphenylcarboxy]-2-methoxy-3,5,6-trimethylbenzoic acid]",4.85,4.92
"COc1c(C)c(OCCCOc2ccc3ccccc3c2)c(C)c(C)c1C(=O)O [Example 18, 2-Methoxy-3,5,6-trimethyl-4-[3-(2-naphthyloxy)-propyloxy]benzoic acid]",4.72,< 4.30
"COc1c(C)c(OC(=O)c2c(C)c(C)c(OCCCOc3ccc4ccccc4c3)c(C)c2OC)c(C)c(C)c1C(=O)O [Example 19, 4-[2-Methoxy-3,5,6-trimethyl-4-[3-(2-naphthyloxy)-propyloxy]phenylcarboxy]-2-methoxy-3,5,6-trimethylbenzoic acid]",5.74,4.80
"COc1ccc(OCCCOc2c(C)c(C)c(C(=O)Oc3c(C)c(C)c(C(=O)O)c(OC)c3C)c(OC)c2C)cc1OC [Example 20, 4-[4-[3-(3,4-Dimethoxyphenoxy)propyloxy]-2-methoxy-3,5,6-trimethylphenylcarboxy]-2-methoxy-3,5,6-trimethylbenzoic acid]",4.46,4.96
"COc1cc(OCCCOc2c(C)c(C)c(C(=O)Oc3c(C)c(C)c(C(=O)O)c(OC)c3C)c(OC)c2C)c(C(c2ccccc2)c2ccccc2)cc1OC [Example 21, 4-[4-[3-(2-Benzhydryl-4,5-dimethoxyphenoxy)propyloxy]-2-methoxy-3,5,6-trimethylphenylcarboxy]-2-methoxy-3,5,6-trimethylbenzoic acid]",5.85,4.82
"COc1c(C)c(OC(=O)c2c(C)c(C)c(OCCCNc3ccc(C(F)(F)F)cc3)c(C)c2OC)c(C)c(C)c1C(=O)O [Example 22, 4-[4-[3-(4-Trifluoromethylphenylamino)propyloxy]-2-methoxy-3,5,6-trimethylphenylcarboxy]-2-methoxy-3,5,6 trimethylbenzoic acid hydrochloride]",5.37,4.38
